Laboratory results from patent US9546152B2 (MERCK SHARP & DOHME CORP., priority 2012, dated 2017).
pIC50, pKi: −log10 of the molar value.

Assays:
[1] = molecular target: T1, human orexin-2 receptor (Homo sapiens (Human), UniProt O43614); assay: radioligand binding assay, orexin-2 receptor; details: membranes prepared from CHO cells expressing the OX2 receptor; read-out: hOX2R BIND hKi
Method: (§1) In a typical experiment the OX1 and OX2 receptor antagonistic activity of the compounds of the present invention was determined in accordance with the following experimental method. For intracellular calcium measurements, Chinese hamster ovary (CHO) cells expressing the rat orexin-1 receptor or the human orexin-2 receptor, are grown in Iscove's modified DMEM containing 2 mM L-glutamine, […], 1% hypoxanthine-thymidine supplement, 100 U/ml penicillin, 100 μg/ml streptomycin and 10% heat-inactivated fetal calf serum (FCS). The cells are seeded at 20,000 cells/well into Becton-Dickinson black 384-well clear bottom sterile plates coated with poly-D-lysine. All reagents were from GIBCO-Invitrogen Corp. The seeded plates are incubated overnight at 37° C. and 5% CO2. Ala-6,12 human orexin-A as the agonist is prepared as a 1 mM stock solution in 1% bovine serum albumin (BSA) and diluted in assay buffer (HBSS containing 20 mM HEPES, 0.1% BSA and 2.5 mM probenecid, pH7.4) for use in the assay at a final concentration of 70 pM. Test compounds are prepared as 10 mM stock solution in DMSO, then diluted in 384-well plates, first in DMSO, then assay buffer. On the day of the assay, cells are washed 3 times with 100 μl assay buffer and then incubated for 60 min (37° C., 5% CO2) in 60 μl assay buffer containing 1 μM Fluo-4AM ester, 0.02% pluronic acid, and 1% BSA. The dye loading solution is then aspirated and cells are washed 3 times with 100 μl assay buffer. 30 μl of that same buffer is left in each well. Within the Fluorescent Imaging Plate Reader (FLIPR, Molecular Devices), test compounds are added to the plate in a volume of 25 μl, incubated for 5 min and finally 25 μl of agonist is added. Fluorescence is measured for each well at 1 second intervals for 5 minutes and the height of each fluorescence peak is compared to the height of the fluorescence peak induced by 70 pM Ala-6,12 orexin-A with buffer in place of antagonist. […] Alternatively, compound potency can be assessed by a radioligand binding assay (described in Bergman et. al. Bioorg. Med. Chem. Lett. 2008, 18, 1425-1430) in which the inhibition constant (Ki) is determined in membranes prepared from CHO cells expressing either the OX1 or OX2 receptor. The intrinsic orexin receptor antagonist activity of a compound which may be used in the present invention may be determined by these assays.

[2] = molecular target: T1, human orexin-2 receptor; assay: FLIPR Ca2+ Flux Assay, orexin-2 receptor; type: cell-based; details: CHO cells expressing the human orexin-2 receptor; agonist 70 pM Ala-6,12 human orexin-A; read-out: hOX2R FLIPR IC50
Method: as §1

[3] = molecular target: rat orexin-1 receptor (Rattus norvegicus (Rat), UniProt P56718); assay: FLIPR Ca2+ Flux Assay, orexin-1 receptor; type: cell-based; details: CHO cells expressing the rat orexin-1 receptor; agonist 70 pM Ala-6,12 human orexin-A; read-out: hOX1R FLIPR IC50
Method: as §1

rat orexin-1 receptor, sequence (P56718 whole entry): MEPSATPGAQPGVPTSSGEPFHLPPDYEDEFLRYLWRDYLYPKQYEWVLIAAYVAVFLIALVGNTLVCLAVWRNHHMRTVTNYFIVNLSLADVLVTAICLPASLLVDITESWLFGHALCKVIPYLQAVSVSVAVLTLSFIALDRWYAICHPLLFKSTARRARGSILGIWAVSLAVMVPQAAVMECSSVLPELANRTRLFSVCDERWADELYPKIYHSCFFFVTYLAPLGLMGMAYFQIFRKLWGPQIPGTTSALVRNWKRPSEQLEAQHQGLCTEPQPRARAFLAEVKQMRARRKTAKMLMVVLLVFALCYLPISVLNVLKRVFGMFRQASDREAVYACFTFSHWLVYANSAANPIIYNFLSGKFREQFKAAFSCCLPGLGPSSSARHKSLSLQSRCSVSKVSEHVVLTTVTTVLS
T1 sequence (O43614 whole entry): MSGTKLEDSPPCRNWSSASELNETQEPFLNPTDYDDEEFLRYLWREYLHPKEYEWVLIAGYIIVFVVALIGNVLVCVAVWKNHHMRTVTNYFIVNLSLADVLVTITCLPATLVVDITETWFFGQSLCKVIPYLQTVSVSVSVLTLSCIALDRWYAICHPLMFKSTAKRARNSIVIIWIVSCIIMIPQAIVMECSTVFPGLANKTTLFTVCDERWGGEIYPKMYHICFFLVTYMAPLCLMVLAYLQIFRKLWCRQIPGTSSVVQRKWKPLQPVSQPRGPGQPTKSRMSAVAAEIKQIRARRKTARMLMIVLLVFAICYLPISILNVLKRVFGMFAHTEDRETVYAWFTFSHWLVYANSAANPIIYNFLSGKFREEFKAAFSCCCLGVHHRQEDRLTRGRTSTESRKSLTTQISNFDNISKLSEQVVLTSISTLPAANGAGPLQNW

Row | Structure (SMILES) | pKi [1] | pIC50 [2] | pIC50 [3]
1 | COc1c(C#N)ccnc1O[C@@H]1CC[C@@H](C)N(C(=O)c2cccc(C)c2-n2nccn2)C1 [Example 101, 3-methoxy-2-{[(3R,6R)-6-methyl-1-{[3-methyl-2-(2H-1,2,3-triazol-2-yl)phenyl]carbonyl}piperidin-3-yl]oxy}pyridine-4-carbonitrile] | 9.52 | 7.68 | 6.02
2 | Cc1c(C#N)ccnc1O[C@@H]1CC[C@@H](C)N(C(=O)c2cc(F)ccc2-c2cscn2)C1 [Example 26, 2-{[(3R,6R)-1-{[5-fluoro-2-(1,3-thiazol-4-yl)phenyl]carbonyl}-6-methylpiperidin-3-yl]oxy}-3-methylpyridine-4-carbonitrile] | 9.22 | 8.00 | 6.01
3 | Cc1c(C#N)ccnc1O[C@@H]1CC[C@@H](C)N(C(=O)c2ccsc2-c2cscn2)C1 [Example 31, 3-methyl-2-{[(3R,6R)-6-methyl-1-{[2-(1,3-thiazol-4-yl)thiophen-3-yl]carbonyl}piperidin-3-yl]oxy}pyridine-4-carbonitrile] | 9.10 | 7.96 | 5.69
4 | COc1ccc(C(=O)N2C[C@H](Oc3nccc(C#N)c3C)CC[C@H]2C)c(-c2ccccn2)n1 [Example 83, 2-({(3R,6R)-1-[(6-methoxy-2,2′-bypyridin-3-yl)carbonyl]-6-methylpiperidin-3-yl}oxy)-3-methylpyridine-4-carbonitrile] | 9.08 | 7.19 | 5.00
5 | Cc1cnn(-c2ccccc2C(=O)N2C[C@H](Oc3nccc(C#N)c3C)CC[C@H]2C)c1 [Example 43, 3-methyl-2-{[(3R,6R)-6-methyl-1-{[2-(4-methyl-1H-pyrazol-1-yl)phenyl]carbonyl}piperidin-3-yl]oxy}pyridine-4-carbonitrile] | 9.05 | 8.00 | 6.14
6 | Cc1c(C#N)ccnc1O[C@@H]1CC[C@@H](C)N(C(=O)c2sccc2-c2nccs2)C1 [Example 37, 3-methyl-2-{[(3R,6R)-6-methyl-1-{[3-(1,3-thiazol-2-yl)thiophen-2-yl]carbonyl}piperidin-3-yl]oxy}pyridine-4-carbonitrile] | 8.92 | 7.96 | 5.64
7 | COc1c(C#N)ccnc1O[C@@H]1CC[C@@H](C)N(C(=O)c2cccc(F)c2-n2nccn2)C1 [Example 97, 2-{[(3R,6R)-1-{[3-fluoro-2-(2H-1,2,3-triazol-2-yl)phenyl]carbonyl}-6-methylpiperidin-3-yl]oxy}-3-methoxypyridine-4-carbonitrile] | 9.52 | 7.72 | 5.96
8 | C[C@@H]1CC[C@@H](Oc2nccc(C#N)c2Cl)CN1C(=O)c1ccccc1-n1nccn1 [Example 91, 3-Chloro-2-{[(3R,6R)-6-methyl-1-{[2-(2H-1,2,3-triazol-2-yl)phenyl]carbonyl}piperidin-3-yl]oxy}pyridine-4-carbonitrile] | 9.10 | 8.10 | 5.79
9 | Cc1c(C#N)ccnc1O[C@@H]1CC[C@@H](C)N(C(=O)c2cccnc2-c2ccccc2)C1 [Example 60, 3-methyl-2-({(3R,6R)-6-methyl-1-[(2-phenylpyridin-3-yl)carbonyl]piperidin-3-yl}oxy)pyridine-4-carbonitrile] | 8.59 | 7.59 | 5.33
10 | Cc1c(C#N)ccnc1O[C@@H]1CC[C@@H](C)N(C(=O)c2cn(C)nc2-c2ccccc2)C1 [Example 45, 3-methyl-2-({(3R,6R)-6-methyl-1-[(1-methyl-3-phenyl-1H-pyrazol-4-yl)carbonyl]piperidin-3-yl}oxy)pyridine-4-carbonitrile] | 7.90 | 7.04 | 5.30
11 | Cc1nnn(-c2ccccc2C(=O)N2C[C@H](Oc3nccc(C#N)c3C)CC[C@H]2C)n1 [Example 40, 3-methyl-2-{[(3R,6R)-6-methyl-1-{[2-(5-methyl-2H-tetrazol-2-yl)phenyl]carbonyl}piperidin-3-yl]oxy}pyridine-4-carbonitrile] | 9.22 | 7.96 | 6.15
12 | Cc1cccc(C(=O)N2C[C@H](Oc3nccc(C#N)c3C)CC[C@H]2C)c1-n1nccn1 [Example 13, 3-methyl-2-{[(3R,6R)-6-methyl-1-{[3-methyl-2-(2H-1,2,3-triazol-2-yl)phenyl]carbonyl}piperidin-3-yl]oxy}pyridine-4-carbonitrile] | 9.70 | 8.05 | 6.67
13 | Cc1c(C#N)ccnc1O[C@@H]1CC[C@@H](C)N(C(=O)c2sccc2-c2ncccn2)C1 [Example 75, 3-methyl-2-({(3R,6R)-6-methyl-1-[(3-pyrimidin-2-ylthiophen-2-yl)carbonyl]piperidin-3-yl}oxy)pyridine-4-carbonitrile] | 9.10 | 7.82 | 5.85
14 | CSc1ccccc1C(=O)N1C[C@H](Oc2nccc(C#N)c2C)CC[C@H]1C [Example 61, 3-methyl-2-{[(3R,6R)-6-methyl-1-{[2-(methylsulfanyl)phenyl]carbonyl}piperidin-3-yl]oxy}pyridine-4-carbonitrile] | 8.85 | 7.46 | 5.10
15 | CCOc1ccccc1C(=O)N1C[C@H](Oc2nccc(C#N)c2C)CC[C@H]1C [Example 19, 2-({(3R,6R)-1-[(2-ethoxyphenyl)carbonyl]-6-methylpiperidin-3-yl}oxy)-3-methylpyridine-4-carbonitrile] | 9.15 | 8.22 | 5.68
16 | COc1c(C#N)ccnc1O[C@@H]1CC[C@@H](C)N(C(=O)c2ccc(C)cc2-n2nccn2)C1 [Example 102, 3-methoxy-2-{[(3R,6R)-6-methyl-1-{[4-methyl-2-(2H-1,2,3-triazol-2-yl)phenyl]carbonyl}piperidin-3-yl]oxy}pyridine-4-carbonitrile] | 9.40 | 7.68 | 5.45
17 | Cc1c(C#N)ccnc1O[C@@H]1CC[C@@H](C)N(C(=O)c2cc(F)ccc2-c2ccccn2)C1 [Example 56] | 8.85 | 7.52 | 5.67
18 | Cc1ccc(C(=O)N2C[C@H](Oc3nccc(C#N)c3C)CC[C@H]2C)c(C2CC2)c1 [Example 51, 2-({(3R,6R)-1-[(2-cyclopropyl-4-methylphenyl)carbonyl]-6-methylpiperidin-3-yl}oxy)-3-methylpyridine-4-carbonitrile] | 9.22 | 7.68 | 5.68
19 | COc1c(C#N)ccnc1O[C@@H]1CC[C@@H](C)N(C(=O)c2cc(F)ccc2-c2ncccn2)C1 [Example 111, 2-({(3R,6R)-1-[(5-fluoro-2-pyrimidin-2-ylphenyl)carbonyl]-6-methylpiperidin-3-yl}oxy)-3-methoxypyridine-4-carbonitrile] | 9.52 | 7.74 | 6.02
20 | COc1c(C#N)ccnc1O[C@@H]1CC[C@@H](C)N(C(=O)c2ccccc2-n2ncnn2)C1 [Example 115, 3-Methoxy-2-{[(3R,6R)-6-methyl-1-{[2-(2H-tetrazol-2-yl)phenyl]carbonyl}piperidin-3-yl]oxy}pyridine-4-carbonitrile] | 8.85 | 8.22 | 5.78
21 | Cc1ccc(C(=O)N2C[C@H](Oc3nccc(C#N)c3C)CC[C@H]2C)c(-n2nccn2)c1 [Example 8, 3-methyl-2-{[(3R,6R)-6-methyl-1-{[4-methyl-2-(2H-1,2,3-triazol-2-yl)phenyl]carbonyl}piperidin-3-yl]oxy}pyridine-4-carbonitrile] | 9.22 | 7.96 | 6.06
22 | Cc1c(C#N)ccnc1O[C@@H]1CC[C@@H](C)N(C(=O)c2ccc(Cl)nc2-n2nccn2)C1 [Example 72, 2-{[(3R,6R)-1-{[6-chloro-2-(2H-1,2,3-triazol-2-yl)pyridin-3-yl]carbonyl}-6-methylpiperidin-3-yl]oxy}-3-methylpyridine-4-carbonitrile] | 8.46 | 7.12 | < 5.00
23 | Cc1c(C#N)ccnc1O[C@@H]1CC[C@@H](C)N(C(=O)c2ccc(F)cc2C2CC2)C1 [Example 53, 2-({(3R,6R)-1-[(2-cyclopropyl-4-fluorophenyl)carbonyl]-6-methylpiperidin-3-yl}oxy)-3-methylpyridine-4-carbonitrile] | 8.80 | 7.59 | 5.24
